Measured values as given in ChEMBL document CHEMBL1909046, “DrugMatrix in vitro pharmacology data”.

Assays:
[1] = target: T1, Alpha-1A adrenergic receptor (Rattus norvegicus, UniProt P43140); assay: DRUGMATRIX: Alpha-1A adrenergic receptor radioligand binding (ligand: prazosin); format: cell membranes, Wistar, Submaxillary gland, Membrane; conditions: Not Active = under 50% inhibition at 10 µM
T1 sequence (P43140 whole entry): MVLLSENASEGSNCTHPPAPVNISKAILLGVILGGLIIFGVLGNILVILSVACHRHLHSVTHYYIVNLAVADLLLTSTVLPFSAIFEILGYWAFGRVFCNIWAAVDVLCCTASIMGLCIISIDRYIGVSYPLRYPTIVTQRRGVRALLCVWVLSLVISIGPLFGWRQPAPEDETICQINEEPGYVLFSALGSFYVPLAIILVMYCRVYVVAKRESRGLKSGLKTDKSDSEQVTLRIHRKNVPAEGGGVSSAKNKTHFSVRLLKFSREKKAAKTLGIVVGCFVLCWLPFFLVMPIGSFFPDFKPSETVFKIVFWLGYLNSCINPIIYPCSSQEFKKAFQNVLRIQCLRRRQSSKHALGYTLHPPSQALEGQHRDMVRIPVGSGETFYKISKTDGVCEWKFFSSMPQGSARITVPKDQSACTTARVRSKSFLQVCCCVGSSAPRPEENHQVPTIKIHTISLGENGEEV

[2] = target: T2, C-X-C chemokine receptor type 2 (Homo sapiens, UniProt P25025); format: cell membranes, Membrane; conditions: cho-k1; note: in other assays of this panel Not Active means under 50% inhibition at 10 µM
T2 sequence (P25025 whole entry): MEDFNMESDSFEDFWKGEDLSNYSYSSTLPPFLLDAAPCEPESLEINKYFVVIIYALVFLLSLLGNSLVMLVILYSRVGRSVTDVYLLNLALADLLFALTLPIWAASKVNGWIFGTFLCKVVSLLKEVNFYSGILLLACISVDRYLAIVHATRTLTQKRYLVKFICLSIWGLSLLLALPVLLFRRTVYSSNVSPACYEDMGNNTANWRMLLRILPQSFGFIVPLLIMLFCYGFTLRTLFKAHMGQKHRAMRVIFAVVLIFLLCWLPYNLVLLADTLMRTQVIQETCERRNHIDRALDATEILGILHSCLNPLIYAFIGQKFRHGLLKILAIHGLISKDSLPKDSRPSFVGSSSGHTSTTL

[3] = DRUGMATRIX: Glutamate, NMDA, Agonism radioligand binding (ligand: [3H] CGP-39653); format: cell membranes, Rattus norvegicus, Wistar, Cerebral cortex, Membrane; conditions: Not Active = under 50% inhibition at 10 µM
[4] = target: T3, Neuropeptide Y receptor type 2 (Homo sapiens, UniProt P49146); format: cell membranes, KAN-TS, Membrane; conditions: kan-ts; note: in other assays of this panel Not Active means under 50% inhibition at 10 µM
T3 sequence (P49146 whole entry): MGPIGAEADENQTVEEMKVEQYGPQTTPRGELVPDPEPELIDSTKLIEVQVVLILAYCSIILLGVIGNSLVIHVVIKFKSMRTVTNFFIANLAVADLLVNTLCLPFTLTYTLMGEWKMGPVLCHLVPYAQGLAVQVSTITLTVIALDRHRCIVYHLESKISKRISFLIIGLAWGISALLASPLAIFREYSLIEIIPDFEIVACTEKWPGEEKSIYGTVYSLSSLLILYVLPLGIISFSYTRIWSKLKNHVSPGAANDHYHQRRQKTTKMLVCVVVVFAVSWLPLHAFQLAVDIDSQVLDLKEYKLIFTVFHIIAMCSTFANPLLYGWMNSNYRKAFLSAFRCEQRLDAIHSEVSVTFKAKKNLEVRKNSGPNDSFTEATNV

[5] = target: Tyrosine-protein kinase Fyn (Homo sapiens, UniProt P06241); assay: biochemical; format: cell-based, Insect cells; conditions: insect cells;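 note: enzymatic inhibition of Fyn kinase activity measured with Poly(Glu:Tyr) as the phosphorylation substrate; in other assays of this panel Not Active means under 50% inhibition at 10 µM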
Tyrosine-protein kinase Fyn, sequence (P06241 whole entry): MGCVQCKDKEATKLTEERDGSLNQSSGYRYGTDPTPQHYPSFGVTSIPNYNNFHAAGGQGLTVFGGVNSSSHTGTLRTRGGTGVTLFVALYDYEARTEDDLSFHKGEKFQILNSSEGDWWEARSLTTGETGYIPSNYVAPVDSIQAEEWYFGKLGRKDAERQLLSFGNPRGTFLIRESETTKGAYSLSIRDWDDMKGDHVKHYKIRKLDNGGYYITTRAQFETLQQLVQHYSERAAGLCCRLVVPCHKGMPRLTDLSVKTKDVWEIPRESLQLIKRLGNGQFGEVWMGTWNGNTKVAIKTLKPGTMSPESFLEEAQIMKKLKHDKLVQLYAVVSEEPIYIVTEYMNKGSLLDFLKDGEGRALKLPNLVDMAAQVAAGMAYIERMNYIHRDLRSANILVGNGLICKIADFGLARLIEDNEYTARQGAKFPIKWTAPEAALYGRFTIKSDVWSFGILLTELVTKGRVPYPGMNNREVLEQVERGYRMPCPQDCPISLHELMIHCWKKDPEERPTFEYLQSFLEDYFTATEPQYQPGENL

Cytochrome P450 3A4 = Cytochrome P450 3A4 (Homo sapiens, UniProt P08684); conditions: bti-tn-5b1-4; note: in other assays of this panel Not Active means under 50% inhibition at 10 µM
Cytochrome P450 3A4, sequence (P08684 whole entry): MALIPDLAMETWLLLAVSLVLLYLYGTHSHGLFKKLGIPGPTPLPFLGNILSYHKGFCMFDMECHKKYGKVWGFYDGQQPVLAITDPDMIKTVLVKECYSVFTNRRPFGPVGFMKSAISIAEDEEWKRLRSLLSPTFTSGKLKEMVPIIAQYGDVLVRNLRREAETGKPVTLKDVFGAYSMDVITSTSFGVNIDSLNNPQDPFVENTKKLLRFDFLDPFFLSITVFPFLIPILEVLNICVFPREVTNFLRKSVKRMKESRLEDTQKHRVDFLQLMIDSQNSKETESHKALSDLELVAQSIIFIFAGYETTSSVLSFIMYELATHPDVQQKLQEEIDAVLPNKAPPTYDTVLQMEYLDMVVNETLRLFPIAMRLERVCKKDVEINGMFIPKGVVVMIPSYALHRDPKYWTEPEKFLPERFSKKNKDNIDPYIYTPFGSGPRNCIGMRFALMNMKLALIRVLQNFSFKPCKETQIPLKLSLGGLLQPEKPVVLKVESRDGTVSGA

Glucocorticoid receptor = target: T4, Glucocorticoid receptor (Homo sapiens, UniProt P04150); conditions: hela s3; note: in other assays of this panel Not Active means under 50% inhibition at 10 µM
T4 sequence (P04150 whole entry): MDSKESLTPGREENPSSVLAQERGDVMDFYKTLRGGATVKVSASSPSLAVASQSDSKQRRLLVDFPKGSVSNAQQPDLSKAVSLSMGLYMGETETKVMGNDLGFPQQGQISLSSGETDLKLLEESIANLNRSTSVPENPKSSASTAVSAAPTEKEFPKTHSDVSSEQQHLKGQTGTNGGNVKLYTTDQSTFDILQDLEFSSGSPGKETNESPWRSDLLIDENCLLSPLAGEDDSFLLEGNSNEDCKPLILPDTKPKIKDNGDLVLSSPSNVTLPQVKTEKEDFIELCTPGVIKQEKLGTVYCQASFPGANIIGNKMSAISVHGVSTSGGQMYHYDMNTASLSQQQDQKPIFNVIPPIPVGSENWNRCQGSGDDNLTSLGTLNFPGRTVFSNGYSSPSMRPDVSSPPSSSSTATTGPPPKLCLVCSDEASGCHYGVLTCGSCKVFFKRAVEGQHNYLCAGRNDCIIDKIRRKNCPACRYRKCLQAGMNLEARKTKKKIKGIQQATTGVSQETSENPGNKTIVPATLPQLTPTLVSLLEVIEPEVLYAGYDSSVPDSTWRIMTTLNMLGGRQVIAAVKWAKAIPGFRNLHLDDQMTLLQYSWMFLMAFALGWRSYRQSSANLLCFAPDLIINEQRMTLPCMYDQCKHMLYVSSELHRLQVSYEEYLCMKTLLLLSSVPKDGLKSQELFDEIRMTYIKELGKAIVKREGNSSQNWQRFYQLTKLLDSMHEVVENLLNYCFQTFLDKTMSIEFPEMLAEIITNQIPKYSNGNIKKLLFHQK

Molecule | IC50 [1] | IC50 [2] | IC50 [3] | Ki [3] | IC50 [4] | IC50 [5] | IC50 (Cytochrome P450 3A4) | Ki (Cytochrome P450 3A4) | IC50 (Glucocorticoid receptor) | IC50 ([1]; read-out: IC50) | Ki ([1]; read-out: Ki) | Ki [1] | Ki [2] | Ki [4] | Ki [5] | Ki (Glucocorticoid receptor)
O=C(Nc1ccc(Br)cc1)c1cc(Br)cc(Br)c1O [TRIBROMSALAN] | Not Active | Not Active | Not Active | Not Active | Not Active | Not Active | Not Active | Not Active | Not Active | – | – | – | – | – | – | –
CC(C)NCC(O)c1ccc(NS(C)(=O)=O)cc1 (centres undefined) [SOTALOL] | Not Active | Not Active | Not Active | Not Active | Not Active | Not Active | Not Active | Not Active | Not Active | – | – | – | – | – | – | –
CO[C@@H]1[C@@H](OC)[C@H](C)[C@@](O)(CC(=O)O)O[C@H]1[C@H](C)[C@H]1O[C@@]2(CC[C@@](C)([C@H]3CC[C@@](C)([C@@H]4O[C@@H]([C@H]5O[C@](C)(O)[C@H](C)C[C@@H]5C)C[C@@H]4O[C@@H]4C[C@H](OC)[C@@H](OC)[C@H](C)O4)O3)O2)C[C@H](O)[C@H]1C [MADURAMICIN ACID] | – | Not Active | Not Active | Not Active | Not Active | Not Active | Not Active | Not Active | Not Active | 3340 nM | 1350 nM | – | – | – | – | –
SODIUM ORTHOVANAD | Not Active | Not Active | Not Active | Not Active | Not Active | Not Active | Not Active | Not Active | Not Active | – | – | Not Active | Not Active | Not Active | Not Active | Not Active
CC(C)NCC(O)c1ccc(O)c(O)c1 (centres undefined) [ISOPROTERENOL] | Not Active | Not Active | Not Active | Not Active | Not Active | Not Active | Not Active | Not Active | Not Active | – | – | – | – | – | – | –
NC1CCN(c2nc3c(cc2F)c(=O)c(C(=O)O)cn3-c2ccc(F)cc2F)C1 (centres undefined) [TOSUFLOXACIN] | Not Active | Not Active | Not Active | Not Active | Not Active | Not Active | Not Active | Not Active | Not Active | – | – | – | – | – | – | –
NC(=O)N1C(=O)/C(=C(\O)c2cccs2)c2cc(Cl)ccc21 [TENIDAP] | Not Active | Not Active | Not Active | Not Active | Not Active | Not Active | Not Active | Not Active | Not Active | – | – | – | – | – | – | –
O=C1C(CC[S+]([O-])c2ccccc2)C(=O)N(c2ccccc2)N1c1ccccc1 (centres undefined) [SULFINPYRAZONE] | Not Active | Not Active | Not Active | Not Active | Not Active | Not Active | Not Active | Not Active | Not Active | – | – | – | – | – | – | –
N#Cc1ccc(C(c2ccc(C#N)cc2)n2cncn2)cc1 [LETROZOLE] | Not Active | Not Active | Not Active | Not Active | Not Active | Not Active | Not Active | Not Active | Not Active | – | – | – | – | – | – | –
O=C(O)c1cn(-c2ccc(F)cc2)c2cc(N3CCNCC3)c(F)cc2c1=O [SARAFLOXACIN] | Not Active | Not Active | Not Active | Not Active | Not Active | Not Active | Not Active | Not Active | Not Active | – | – | – | – | – | – | –
CCCCOc1cc(CC2CNC(=O)N2)ccc1OC (centres undefined) [RO-201724] | Not Active | Not Active | Not Active | Not Active | Not Active | Not Active | Not Active | Not Active | Not Active | – | – | – | – | – | – | –
CCN(CC)CCNC(=O)c1cc(S(C)(=O)=O)ccc1OC [TIAPRIDE] | Not Active | Not Active | Not Active | Not Active | Not Active | Not Active | Not Active | Not Active | Not Active | – | – | – | – | – | – | –
